Key:
Assay type in all cases: in vivo, human
[1] = tested on: patients with hematological malignancies at low or intermediate risk for tumor lysis syndrome; assay: Prophylactic effect on serum uric acid, renal function and urinary uric acid excretion in patients with hematological malignancies receiving chemotherapy (Example 2)
Method: In order to investigate the prophylactic effects of febuxostat on tumor lysis syndrome, 10 mg of febuxostat (the starting dose in gout and hyperuricemia) was orally administered once a day, daily, from just before or the day before chemotherapy was performed on patients with hematological malignancies at low or intermediate risk for tumor lysis syndrome, and the serum uric acid level and the renal function on the fifth day of administration were compared with those before the start of febuxostat administration. For cases in which urine collection was possible, the urinary excretion level of uric acid on the fifth day of administration was compared with that before the start of febuxostat administration. […] Seven male and female cases (6 males and 1 female), aged 36 to 79 (median 70), acute myeloid leukemia (AML 3 cases), diffuse large B-cell lymphoma (DLBCL 2 cases), chronic myelomonocytic leukemia (CMML 1 case), chronic myeloid leukemia (CML 1 case), white blood cell count (WBC) 3,200 to 347,000/μL [table]

[2] = tested on: malignant tumor patients with tumor lysis syndrome; assay: Prophylactic effect on serum uric acid levels when chemotherapy is performed on malignant tumor patients with tumor lysis syndrome (Example 3); settings: oral once daily from before chemotherapy, adult and pediatric patients; written in present tense, no data
Method: In order to investigate prophylactic effects of febuxostat on tumor lysis syndrome, febuxostat is orally administered once a day, daily, from before chemotherapy is performed on a malignant tumor adult patient with tumor lysis syndrome, and an assessment is made by using serum uric acid levels as indicators. In addition, also for a malignant tumor pediatric patient with tumor lysis syndrome, similar investigation is conducted with febuxostat.

[3] = tested on: high-risk tumor lysis syndrome patient; assay: Therapeutic effect on serum uric acid levels and renal function in a high-risk tumor lysis syndrome patient (Example 1)
Method: In order to investigate the therapeutic effects of febuxostat on a high-risk tumor lysis syndrome patient, a high-risk patient with tumor lysis syndrome which had occurred without antitumor therapy, and already presented hyperuricemia, was given transfusions of fresh frozen plasma and packed red blood cells, and then in addition to increasing a urine volume by supplying fluid and to alkalizing urine, febuxostat (60 mg) was orally administered for 3 days, and the serum uric acid levels and renal function were compared with those before administration of febuxostat.
A person, Myelodysplastic syndrome (MDS), White blood cell count (WBC) 15400/μL

## Cc1nc(-c2ccc(OCC(C)C)c(C#N)c2)sc1C(=O)O [febuxostat, 2-[3-cyano-4-(2-methylpropoxyl)phenyl]-4-methylthiazole-5-carboxylic acid]
[1]; Case 2 (AML), fifth day of febuxostat 10 mg/day, 1.9 mg/dL before administration
  Serum uric acid level (UA), Case 2: 2.3 mg/dL
[1]; Case 2, fifth day of febuxostat 10 mg/day, 0.8 g/day before administration
  Urinary excretion level of uric acid (urinary UA), Case 2: 1.6 g/day
[1]; Case 2, fifth day of febuxostat 10 mg/day, 101 mL/min before administration
  Estimated glomerular filtration rate (eGFR), Case 2: 99 mL/min
[1]; all cases, febuxostat 10 mg/day with chemotherapy
  Acute renal failure: in all cases, acute renal failure was prevented
[1]; all cases, prophylactic febuxostat 10 mg with chemotherapy, normal level 7.5 mg/dL or less
  Serum uric acid levels relative to normal levels: maintain the serum uric acid levels within or lower them to within normal levels
[1]; cases where urine collection was possible, fifth day of febuxostat 10 mg/day, 1.2 g/day on average before administration
  Urinary excretion level of uric acid (urinary UA), average: 0.9 g/day
[1]; fifth day of febuxostat 10 mg once daily oral, average of 7 cases, 6.3 mg/dL on average before administration
  Serum uric acid level (UA), average: 4.6 mg/dL
[1]; fifth day of febuxostat 10 mg once daily, average, 69.7 mL/min on average before administration
  Estimated glomerular filtration rate (eGFR), average: 76.9 mL/min
[1]; severe case in which WBC was high, fifth day of febuxostat 10 mg/day, 2.4 g/day before administration
  Urinary excretion level of uric acid (urinary UA), severe case with high WBC: 0.7 g/day
[2]
  Prevention of tumor lysis syndrome (serum uric acid levels as indicators): effective for the prevention of tumor lysis syndrome
[3]; Day 4, after 3 days of febuxostat 60 mg/day, 0.87 mg/dL before administration
  Serum creatinine (Cre): 0.73 mg/dL
[3]; Day 4, after 3 days of febuxostat 60 mg/day, 53 mL/min before administration
  Estimated glomerular filtration rate (eGFR): 64 mL/min
[3]; Day 4, after 3 days of oral febuxostat 60 mg/day, person, MDS, 9.7 mg/dL on the day before administration
  Serum uric acid level (UA): 1.7 mg/dL
[3]; Day 4 vs day before administration, febuxostat 60 mg/day for 3 days
  Reduction of serum uric acid level: 82.4%
